Measurements published in patent publication US20250034170A1, “SMALL MOLECULE MODULATORS OF GLUCOCEREBROSIDASE ACTIVITY AND USES THEREOF” (Vanqua Bio, Inc., priority 2021, published 2025).

What follows are compounds tested against T1, GCase (Homo sapiens, UniProt P04062) (assay: activation of GCase in a live cell PFB assay in HELA cells). Conditions: activation of GCase, EC50 ranges.
T1 construct: endogenous in cells; host or cells: HeLa cells
T1 sequence (P04062 40-536): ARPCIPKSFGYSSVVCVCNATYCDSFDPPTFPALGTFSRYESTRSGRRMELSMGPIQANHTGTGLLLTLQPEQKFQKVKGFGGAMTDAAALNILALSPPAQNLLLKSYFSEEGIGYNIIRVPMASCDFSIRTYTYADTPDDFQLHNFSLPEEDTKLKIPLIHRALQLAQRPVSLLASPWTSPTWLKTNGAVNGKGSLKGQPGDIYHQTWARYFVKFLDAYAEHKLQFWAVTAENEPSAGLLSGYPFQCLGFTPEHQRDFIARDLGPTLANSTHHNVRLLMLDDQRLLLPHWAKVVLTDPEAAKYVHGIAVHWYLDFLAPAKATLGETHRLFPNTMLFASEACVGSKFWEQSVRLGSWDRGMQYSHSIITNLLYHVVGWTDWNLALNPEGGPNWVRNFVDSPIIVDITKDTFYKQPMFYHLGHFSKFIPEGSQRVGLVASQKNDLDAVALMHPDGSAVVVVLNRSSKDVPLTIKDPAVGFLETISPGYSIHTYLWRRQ
Assay type: cell-based
Description: Exemplary compounds were evaluated for activation of GCase in a live cell PFB assay in HELA cells (essentially as described in Ysselstein et al., “LRRK2 kinase activity regulates lysosomal glucocerebrosidase in neurons derived from Parkinson's disease patients” Nature Communications (2019) 10:5570). […] EC50 ranges: A: <10 μM; B: >10-50 μM; C: >50-100 μM; D: >100 μM.

SMILES | EC50 [µM]
FC(F)Cn1ncc2ncc(N3CCCC4(CCN(c5cccc(C(F)(F)F)n5)C4)C3)nc21 (centres unmarked) [Compound 34, 7-[1-(2,2-difluoroethyl)-1H-pyrazolo[3,4-b]pyrazin-6-yl]-2-[6-(trifluoromethyl)pyridin-2-yl]-2,7-diazaspiro[4.5]decane] | 10 to 50
FC(F)Cn1ncc2ncc(N3CC4(CCCN(c5ncccc5C(F)(F)F)C4)C3)nc21 [Compound 39, 2-[1-(2,2-difluoroethyl)-1H-pyrazolo[3,4-b]pyrazin-6-yl]-6-[3-(trifluoromethyl)pyridin-2-yl]-2,6-diazaspiro[3.5]nonane] | 50 to 100
O=C(c1ccc2cc[nH]c2c1)N1CCCC2(CC(Oc3cnccc3C(F)(F)F)C2)C1 (centres unmarked) [Compound 40, 6-(1H-indole-6-carbonyl)-2-{[4-(trifluoromethyl)pyridin-3-yl]oxy}-6-azaspiro[3.5]nonane] | 50 to 100
O=C(Cc1csc(-c2ccccc2)n1)N1CCCC2(C1)CN(c1ccccc1)C2 [Compound 57, 2-(2-phenyl-1,3-thiazol-4-yl)-1-{2-phenyl-2,6-diazaspiro[3.5]nonan-6-yl}ethan-1-one] | 10 to 50
O=C(Cc1csc(-c2ccccc2)n1)N1CC2(CCCN(c3ccccc3)C2)C1 [Compound 58, 2-(2-phenyl-1,3-thiazol-4-yl)-1-{6-phenyl-2,6-diazaspiro[3.5]nonan-2-yl}ethan-1-one] | 10 to 50
FC(F)Cn1ncc2ncc(N3CCC4(CC3)CN(c3cncc(C(F)(F)F)c3)C4)nc21 [Compound 69, 7-[1-(2,2-difluoroethyl)-1H-pyrazolo[3,4-b]pyrazin-6-yl]-2-[5-(trifluoromethyl)pyridin-3-yl]-2,7-diazaspiro[3.5]nonane] | 10 to 50
O=C1N(c2cc(C(F)(F)F)ccn2)C(=O)C2(CCN(c3cnc4cnn(CC(F)F)c4n3)CC2)N1Cc1ccccc1 [Compound 70, 1-benzyl-8-(1-(2,2-difluoroethyl)-1H-pyrazolo[3,4-b]pyrazin-6-yl)-3-(4-(trifluoromethyl)pyridin-2-yl)-1,3,8-triazaspiro[4.5]decane-2,4-dione] | < 10
FC(F)Cn1ncc2ncc(N3CCC4(CC3)CN(c3cccc(C(F)(F)F)n3)C4)nc21 [Compound 77, 7-[1-(2,2-difluoroethyl)-1H-pyrazolo[3,4-b]pyrazin-6-yl]-2-[6-(trifluoromethyl)pyridin-2-yl]-2,7-diazaspiro[3.5]nonane] | < 10
FC(F)Cn1ncc2ncc(N3CCC4(CCCC4COc4cccc(C(F)(F)F)n4)CC3)nc21 (centres unmarked) [Compound 80, 8-[1-(2,2-difluoroethyl)-1H-pyrazolo[3,4-b]pyrazin-6-yl]-1-({[6-(trifluoromethyl)pyridin-2-yl]oxy}methyl)-8-azaspiro[4.5]decane] | 10 to 50
FC(F)Cn1ncc2ncc(N3CCC4(CCC(Oc5cccc(C(F)(F)F)n5)C4)CC3)nc21 (centres unmarked) [Compound 81, 8-[1-(2,2-difluoroethyl)-1H-pyrazolo[3,4-b]pyrazin-6-yl]-2-{[6-(trifluoromethyl)pyridin-2-yl]oxy}-8-azaspiro[4.5]decane] | 10 to 50
FC(F)Cn1ncc2ncc(N3CCC4(CCC4COc4cccc(C(F)(F)F)n4)CC3)nc21 (centres unmarked) [Compound 82, 7-[1-(2,2-difluoroethyl)-1H-pyrazolo[3,4-b]pyrazin-6-yl]-1-({[6-(trifluoromethyl)pyridin-2-yl]oxy}methyl)-7-azaspiro[3.5]nonane] | 10 to 50
FC(F)Cn1ncc2ncc(N3CCC4(CCC4Oc4cccc(C(F)(F)F)n4)CC3)nc21 (centres unmarked) [Compound 83, 7-[1-(2,2-difluoroethyl)-1H-pyrazolo[3,4-b]pyrazin-6-yl]-1-{[6-(trifluoromethyl)pyridin-2-yl]oxy}-7-azaspiro[3.5]nonane] | 10 to 50
FC(F)Cn1ncc2ncc(N3CCC4(CC3)CC(Oc3cccc(C(F)(F)F)n3)C4)nc21 [Compound 84, 7-[1-(2,2-difluoroethyl)-1H-pyrazolo[3,4-b]pyrazin-6-yl]-2-{[6-(trifluoromethyl)pyridin-2-yl]oxy}-7-azaspiro[3.5]nonane] | 10 to 50
FC(F)Cn1ncc2ncc(N3CCC4(CC3)CC(Oc3cccnc3C(F)(F)F)C4)nc21 [Compound 88, 7-[1-(2,2-difluoroethyl)-1H-pyrazolo[3,4-b]pyrazin-6-yl]-2-{[2-(trifluoromethyl)pyridin-3-yl]oxy}-7-azaspiro[3.5]nonane] | < 10

Second part, the compound after the results:

EC50 [µM] | SMILES
10 to 50 | FC(F)Cn1ncc2ncc(N3CCCC4(C3)CN(c3ccncc3C(F)(F)F)C4)nc21 [Compound 35, 6-[1-(2,2-difluoroethyl)-1H-pyrazolo[3,4-b]pyrazin-6-yl]-2-[3-(trifluoromethyl)pyridin-4-yl]-2,6-diazaspiro[3.5]nonane]
10 to 50 | FC(F)Cn1ncc2ncc(N3CCC4(CCCN(c5cccc(C(F)(F)F)n5)C4)C3)nc21 (centres unmarked) [Compound 36, 2-[1-(2,2-difluoroethyl)-1H-pyrazolo[3,4-b]pyrazin-6-yl]-7-[6-(trifluoromethyl)pyridin-2-yl]-2,7-diazaspiro[4.5]decane]
10 to 50 | FC(F)Cn1ncc2ncc(N3CCCC4(CN(c5ccc(C(F)(F)F)nc5)C4)C3)nc21 [Compound 37, 6-[1-(2,2-difluoroethyl)-1H-pyrazolo[3,4-b]pyrazin-6-yl]-2-[6-(trifluoromethyl)pyridin-3-yl]-2,6-diazaspiro[3.5]nonane]
10 to 50 | FC(F)Cn1ncc2ncc(N3CCCC4(CN(c5cc(C(F)(F)F)ccn5)C4)C3)nc21 [Compound 38, 6-[1-(2,2-difluoroethyl)-1H-pyrazolo[3,4-b]pyrazin-6-yl]-2-[4-(trifluoromethyl)pyridin-2-yl]-2,6-diazaspiro[3.5]nonane]
50 to 100 | FC(F)Cn1ncc2ncc(N3CCCC4(CN(c5ccc(C(F)(F)F)cn5)C4)C3)nc21 [Compound 41, 6-[1-(2,2-difluoroethyl)-1H-pyrazolo[3,4-b]pyrazin-6-yl]-2-[5-(trifluoromethyl)pyridin-2-yl]-2,6-diazaspiro[3.5]nonane]
< 10 | FC(F)Cn1ncc2ncc(N3CCC4(CC3)CN(c3ccc(C(F)(F)F)nc3)C4)nc21 [Compound 66, 7-[1-(2,2-difluoroethyl)-1H-pyrazolo[3,4-b]pyrazin-6-yl]-2-[6-(trifluoromethyl)pyridin-3-yl]-2,7-diazaspiro[3.5]nonane]
< 10 | FC(F)Cn1ncc2ncc(N3CCC4(CC3)CN(c3ccnc(C(F)(F)F)c3)C4)nc21 [Compound 68, 7-[1-(2,2-difluoroethyl)-1H-pyrazolo[3,4-b]pyrazin-6-yl]-2-[2-(trifluoromethyl)pyridin-4-yl]-2,7-diazaspiro[3.5]nonane]
< 10 | CC1(C)C(=O)N(c2cc(C(F)(F)F)ccn2)CC12CCN(c1cnc3cnn(CC(F)F)c3n1)CC2 [Compound 73, 8-(1-(2,2-difluoroethyl)-1H-pyrazolo[3,4-b]pyrazin-6-yl)-4,4-dimethyl-2-(4-(trifluoromethyl)pyridin-2-yl)-2,8-diazaspiro[4.5]decan-3-one]
< 10 | CCC1C(=O)N(c2cc(C(F)(F)F)ccn2)CC12CCN(c1cnc3cnn(CC(F)F)c3n1)CC2 (centres unmarked) [Compound 75, 8-(1-(2,2-difluoroethyl)-1H-pyrazolo[3,4-b]pyrazin-6-yl)-4-ethyl-2-(4-(trifluoromethyl)pyridin-2-yl)-2,8-diazaspiro[4.5]decan-3-one]
< 10 | FC(F)Cn1ncc2ncc(N3CCC4(CC3)CN(c3cnccc3C(F)(F)F)C4)nc21 [Compound 76, 7-[1-(2,2-difluoroethyl)-1H-pyrazolo[3,4-b]pyrazin-6-yl]-2-[4-(trifluoromethyl)pyridin-3-yl]-2,7-diazaspiro[3.5]nonane]
10 to 50 | FC(F)Cn1ncc2ncc(N3CCC4(CC3)CN(c3ccc(C(F)(F)F)cn3)C4)nc21 [Compound 78, 7-[1-(2,2-difluoroethyl)-1H-pyrazolo[3,4-b]pyrazin-6-yl]-2-[5-(trifluoromethyl)pyridin-2-yl]-2,7-diazaspiro[3.5]nonane]
< 10 | FC(F)Cn1ncc2ncc(N3CCC4(CC3)CN(c3ncccc3C(F)(F)F)C4)nc21 [Compound 79, 7-[1-(2,2-difluoroethyl)-1H-pyrazolo[3,4-b]pyrazin-6-yl]-2-[3-(trifluoromethyl)pyridin-2-yl]-2,7-diazaspiro[3.5]nonane]
10 to 50 | FC(F)Cn1ncc2ncc(N3CCC4(CC3)CC(COc3cccc(C(F)(F)F)n3)C4)nc21 [Compound 85, 7-[1-(2,2-difluoroethyl)-1H-pyrazolo[3,4-b]pyrazin-6-yl]-2-({[6-(trifluoromethyl)pyridin-2-yl]oxy}methyl)-7-azaspiro[3.5]nonane]
< 10 | FC(F)Cn1ncc2ncc(N3CCC4(CCC(Oc5cccnc5C(F)(F)F)C4)CC3)nc21 (centres unmarked) [Compound 86, 8-[1-(2,2-difluoroethyl)-1H-pyrazolo[3,4-b]pyrazin-6-yl]-2-{[2-(trifluoromethyl)pyridin-3-yl]oxy}-8-azaspiro[4.5]decane]
< 10 | FC(F)Cn1ncc2ncc(N3CCC4(CCC4Oc4cccnc4C(F)(F)F)CC3)nc21 (centres unmarked) [Compound 87, 7-[1-(2,2-difluoroethyl)-1H-pyrazolo[3,4-b]pyrazin-6-yl]-1-{[2-(trifluoromethyl)pyridin-3-yl]oxy}-7-azaspiro[3.5]nonane]
